Data on two compounds can be found in patent US20180118722A1, “NOVEL ARYL-CYANOGUANIDINE COMPOUNDS” (Bayer Pharma Aktiengesellschaft, priority 2015, published 2018).

The target of test [1] is T1, SMYD2 (Homo sapiens, UniProt Q9NRG4). Description: In Cell Western (ICW) cell-based assay for detection of SMYD2 methylation activity (p53K370me1) in SMYD2 overexpressing KYSE-150 cells. The settings on record: 72 h treatment, p53K370me1 signal, read-out: IC50 [mol/l] (ICW assay). Further details: expressed in transfected cells; host or cells: KYSE-150 (human esophageal carcinoma, DSMZ ACC 375). The text has this: 1.2 Cell-Based Assay for Detection of SMYD2 Methylation Activity
For the detection of SMYD2 cellular methylation activity an In Cell Western (ICW) assay was established. This assay allows rapid processing of multiple samples for SMYD2 methylation derived immunofluorescence signals, with normalization to cell number via the use of the nucleic acid dye DRAQS. KYSE-150 cells (human esophageal carcinoma cell line; DSMZ-German Collection of Microorganisms and Cell Cultures; No: ACC 375) have been stably transfected with a construct expressing wild-type SMYD2 (NCBI Reference Sequence: NP_064582.2). […]
For conducting the ICW assay 5000 SMYD2 overexpressing KYSE-150 cells/well were seeded in 96-well plates (SIGMA) and cultivated for 24 h. […] After 5 washes with PBS, the fluorescence in each well was measured on an Odyssey (LI-COR) scanner at 800 nm (p53K370me1 signal; 764 nm excitation) and 700 nm (DRAQS signal; 683 nm excitation). Fluorescence intensity was quantified and normalized to background and DRAQS signals. IC50 values were calculated by fitting the normalized inhibition data to a 4-parameter logistic equation (Minimum, Maximum, IC50, Hill; Y=Max+(Min−Max)/(1+(X/IC50)Hill)) for each tested compound. For IC50 determination C0 (=no inhibition) was defined as the signal measured for DMSO treated controls. […]

The target in test [2] is T1, SMYD2. Description: Scintillation proximity assay (SPA) for detection of SMYD2 enzymatic inhibition. It counts as biochemical. Further details: The SMYD2 full length enzyme was produced in-house by expression (with an N-terminal 6×His tag) in E. coli; 6xHis (N); made in house; host or cells: E. coli. The settings on record: p53 Peptide substrate 1.0 μM, 3H-SAM 60 nM, 30 min at 22° C.; read-out: IC50 [mol/l] (SPA Assay). The source says: 1.1 Scintillation Proximity Assay (SPA) for Detection of SMYD2 Enzymatic Inhibition
SMYD2 inhibitory activities of the compounds described in the present invention were quantified using a scintillation proximity assay (SPA) which measures methylation by the enzyme of the synthetic, biotinylated peptide Btn-Ahx-[…]−Amid×TFA (Biosyntan) derived from p53 and referred to from here on as “p53 Peptide”. The SMYD2 full length enzyme was produced in-house by expression (with an N-terminal 6×His tag) in E. coli and purification by affinity chromatography on a Ni-NTA Sepharose column followed by a size exclusion chromatography step on a Superdex 200 16/60 column (GE Healthcare).
In a typical assay 11 different concentrations of each compound (0.1 nM, 0.33 nM, 1.1 nM, 3.8 nM, 13 nM, 44 nM, 0.15 μM, 0.51 μM, 1.7 μM, 5.9 μM and 20 μM) were tested in duplicate within the same microtiter plate. To this end, 100-fold concentrated compound solutions (in DMSO) were previously prepared by serial dilution (1:3.4) of 2 mM stocks in a clear low volume 384-well source microtiter plate (Greiner Bio-One), from which 50 nl of compound solutions were transferred into a white low volume test microtiter plate from the same supplier. […] IC50 values were calculated by fitting the normalized inhibition data to a 4-parameter logistic equation using the “Screener” analysis software from Genedata.

T1 sequence (Q9NRG4 whole entry): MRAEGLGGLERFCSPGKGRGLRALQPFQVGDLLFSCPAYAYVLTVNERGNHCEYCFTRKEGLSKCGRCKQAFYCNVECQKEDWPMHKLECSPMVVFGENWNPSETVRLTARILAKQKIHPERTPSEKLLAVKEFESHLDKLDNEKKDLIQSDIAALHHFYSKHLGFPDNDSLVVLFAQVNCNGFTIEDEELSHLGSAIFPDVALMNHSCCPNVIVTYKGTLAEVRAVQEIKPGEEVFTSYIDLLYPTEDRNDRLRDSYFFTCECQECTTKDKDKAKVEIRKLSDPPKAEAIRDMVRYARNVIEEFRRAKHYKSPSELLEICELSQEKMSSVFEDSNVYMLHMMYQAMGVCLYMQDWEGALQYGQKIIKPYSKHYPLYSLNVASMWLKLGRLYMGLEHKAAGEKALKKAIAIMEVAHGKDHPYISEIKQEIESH

Turning to `N#C/N=C(/Nc1cccc(OC(F)F)c1)N1CC(N2CCCC(N)C2=O)C(c2ccc(Cl)c(Cl)c2)=N1` (stereo not shown) [Example 1, 4-(3-amino-2-oxopiperidin-1-yl)-N′-cyano-3-(3 ,4-dichlorophenyl)-N-[3-(difluoromethoxy)phenyl]-4,5-dihydro-1H-pyrazole-1-carboximidamide], the values for the IC50 at SMYD2 [1] and at SMYD2 [2] were 100 nM and 31.6 nM, respectively.
In the same order, the values of `N#C/N=C(/Nc1cccc(OC(F)F)c1)N1CC(N2CCC(N)C2=O)C(c2ccc(Cl)c(Cl)c2)=N1` (stereo not shown) [Example 2, 4-(3-amino-2-oxopyrrolidin-1-yl)-N′-cyano-3-(3,4-dichlorophenyl)-N-[3-(difluoromethoxy)phenyl]-4,5-dihydro-1H-pyrazole-1-carboximidamide] are 171 nM and 302 nM.
